Legend:
K562 cells [1] = assay: Cellular uptake of fluorescein-labelled PNAs by FACS analysis; format: cell-based, human; conditions: 24 h incubation; for change of cellular uptake in the presence of serum: medium with serum vs serum-free, FACS
Experimental: We therefore studied the uptake of backbone-modified PNAs in the same cellular model and compared the obtained results with those observed in the study of PNA1 and PNA2. K562 cells were incubated in the presence of increasing concentrations of fluorescein-labelled PNAs (PNA1–6-Fl) for 24 and 48 h and analysed by fluorescence-activated cell sorting analysis (FACS), giving the results shown in Figure 3. Because different PNA structures could be affected by proteases present in serum, leading to different cellular uptakes, these experiments were conducted both in the presence and in the absence of serum.
Human cell lines and culture conditions: Human leukaemia K562 cells were cultured under humidified CO2 (5 %)/air in RPMI 1640 medium (Sigma) supplemented with foetal bovine serum (FBS, 10 %, Analitical de Mori, Milan, Italy), penicillin (50 units mL^−1) and streptomycin (50 μg mL^−1).[26] Mithramycin (MTH) was from Sigma. Stock solutions of MTH (100 μM) were stored at −20 °C in the dark and diluted immediately before use. Treatment of K562 cells with MTH was carried out by addition of the appropriate drug concentrations at the beginning of the cultures (cells were seeded at 30 000 mL^−1). The medium was not changed during the induction period. To determine antiproliferative activity, cell growth was studied by determining the cell number per mL with a Z1 Coulter Counter (Coulter Electronics, Hialeah, FL, USA). Erythroid differentiated K562 cells containing haemoglobin were detected by specific reaction with a benzidine/hydrogen peroxide solution as reported elsewhere.[26] The final concentration of benzidine was 0.2 % in glacial acetic acid (5 M) and H2O2 (10 %).
(§1) FACS analysis: For determination of fluorescence intensity by FACScan (Becton Dickinson, Franklin Lakes, NJ, USA), cells (either in medium supplemented with serum or under serum-free conditions) were incubated with the indicated concentrations of PNAs for different lengths of time, harvested and washed. The cells (3×10^5) were then analysed with the aid of the CellQuest version 3.3 software (Becton Dickinson), with use of the FL1 channel to detect green fluorescence. The results were expressed as median fold (i.e., the ratio between the median fluorescence intensity values obtained in the presence and in the absence of treatment, respectively). A graphic presentation of data was finally obtained through histograms, showing the number of cells versus the expressed fluorescence intensity. In some experiments we pre-incubated fluorescence-labelled PNAs (2 μM) for 10 min at room temperature in the dark with trypsin/EDTA (0.05 %, 2 and 4 μL) before addition to the cells.

K562 cells [2] = assay: Cellular uptake (FACS) after pre-incubation with trypsin; format: cell-based, human; conditions: PNA 2 μM pre-incubated 10 min at room temperature with trypsin (0.012–0.025 %), then K562 cells in the absence of serum
Experimental: In order to explore the effect of protection against proteases further, pre-incubation of the PNA–peptide conjugate PNA2-Fl and the modified PNAs PNA3-Fl, PNA4-Fl, PNA5-Fl and PNA6-Fl was performed with trypsin (0.012–0.025 %) before allowing interaction with target K562 cells in the absence of serum (see Figure 4). […] The embedding of arginine residues into the PNA backbone thus allows efficient cellular uptake to be achieved without the risk of degradation even by a basic amino-acid-specific peptidase. In contrast, the carrier peptide of PNA2-Fl is to a certain degree an Achilles' heel of the molecule, leading to possible degradation by proteases, an effect worth considering in view of possible developments of PNAs as drugs based on anti-miR activity.
as §1

[3] = tested on: DNA1 (full-match antiparallel DNA); assay: Melting temperature (Tm) of PNA:DNA duplexes, full-match DNA; format: binding; conditions: UV absorbance at 260 nm, strand concentration 5 μM; for Tm, DNA1 in urea (5 M): PBS buffer pH 7 (NaCl 100 mM, NaH2PO4 10 mM, EDTA 0.1 mM) with urea 5 M; for Tm, DNA1 in water: PBS buffer pH 7, no urea, 18 to 90 °C at 1 °C/min
Experimental: (§2) Measurements of Tm values: The Tm values were determined with a Lambda Bio 20 spectrophotometer and a Peltier PTP6 temperature programmer. Thermal denaturation profiles were measured by monitoring the absorbance at 260 nm from 18 to 90 °C with a heating rate of 1 °C min^−1 and recording every 0.1 °C. […]

[4] = tested on: DNA2 (mismatched DNA, G→T); assay: Melting temperature (Tm) of PNA:DNA duplexes, single-mismatch DNA; format: binding; conditions: for Tm, DNA2 in urea (5 M): single mismatch, UV absorbance at 260 nm, PBS buffer pH 7 with urea 5 M, strand concentration 5 μM
Text: (§3) Sequence selectivity is a very important issue in view of the use of PNAs in cellular systems, because partial hybridisation might occur with other unrelated miRNAs or, most importantly, with mRNA targets. We analysed the sequence selectivities of our PNAs with stricter models (DNA2 and RNA2) involving single base mismatches (G→T or G→U) located in the middle of the target sequences. In each case the sequence selectivity was confirmed by significant lowering of the melting temperature. The ranges of ΔTm due to the presence of these single mismatches were 8–21 °C for DNA, with the maximum drop in the case of PNA4 and the minimum observed in that of PNA6. For the latter it should be considered that the mismatch was facing the last chiral monomer, preventing the cooperative effect observed in the case of 2D-modifed highly constrained PNA.[22]
(§4) Measurements of Tm values: The Tm values were determined with a Lambda Bio 20 spectrophotometer and a Peltier PTP6 temperature programmer. Thermal denaturation profiles were measured by monitoring the absorbance at 260 nm from 18 to 90 °C with a heating rate of 1 °C min^−1 and recording every 0.1 °C. Measurement conditions: [PNA]=[DNA] or [RNA]=5 μM in PBS buffer [pH 7.0, NaCl (100 mM), NaH2PO4⋅H2O (10 mM), EDTA (0.1 mM)] with urea (5 M).

[5] = tested on: RNA1 (target region of miR-210); assay: Melting temperature (Tm) of PNA:RNA duplexes, full-match RNA; format: binding; conditions: UV absorbance at 260 nm, strand concentration 5 μM; for Tm, RNA1 in water: PBS buffer pH 7, no urea; for Tm, RNA1 in urea (5 M): PBS buffer pH 7 with urea 5 M
Experimental: as §2

[6] = tested on: RNA2 (mismatched RNA, G→U); assay: Melting temperature (Tm) of PNA:RNA duplexes, single-mismatch RNA; format: binding; conditions: UV absorbance at 260 nm, PBS buffer pH 7 with urea 5 M, strand concentration 5 μM
Text: as §3, §4

miR-210 = miR-210 content by RT-qPCR analysis; format: cell-based, human; conditions: K562 cells, 24 h; for miR-210 inhibition upon treatment with mithramycin: PNA 2 μM with MTH 15 nM, relative to pept-1 and MTH; for inhibition of miR-210 bioavailability (miR-210 content): PNA 2 μM, Figure 5 A and B, relative to pept-1
Experimental: K562 cells were treated with 15 nM mithramycin in the presence of a PNA (2 μM), and after 24 h RNA was isolated and miR-210 was assayed by RT-qPCR analysis. This type of test has been used to evaluate miR content in many studies because it allows the free-miR content to be evaluated. […] Figure 5 A and B reports the obtained data, showing that inhibition of miR bioavailability was induced both with the modified PNA and with the peptide-conjugated one, whereas in the case of PNA1 it was unchanged. […] This might be related to inhibition of pre-miR maturation or to unavailability of the miR to the qRT-PCR analysis due to strong complexation with the PNA. In either case the bioavailability of the miR for targeting other genes should be reduced.
Transfection procedures: Anti-miR-210 PNAs were directly added to the cellular medium to reach the indicated final concentrations. K562 cells were cultured in 24-well plates starting from the initial density of 30 000 cells per mL. MTH was administrated together with anti-miR PNAs.
RNA extraction: Cells were isolated by centrifugation at 1500 rpm for 10 min at 4 °C, washed in PBS and lysed in Tri-reagent (Sigma–Aldrich) according to the manufacturer's instructions. The isolated RNA was washed once with cold ethanol (75 %), dried and dissolved in ultrapure nuclease-free water.
Real-time quantitative PCR: For microRNA quantification with real-time RT-PCR reagents, the primers and probes were obtained from Applied Biosystems. Reverse transcriptase (RT) reactions were performed with a TaqMan MicroRNA Reverse Transcription Kit (Applied Biosystems) for hsa-miR-210, hsa-miR-10a, hsa-miR-93, hsa-miR-99b, hsa-miR-126, hsa-miR-149, hsa-miR-424, hsa-miR-483-5p, hsa-miR-625, hsa-let-7c and the iQTM5 real-time PCR System Instrument (Bio-Rad). Relative expression was calculated by the comparative cycle threshold method and U6 microRNA was used as reference gene to normalise all RNA samples, because it is constant in the assayed samples by miR-profiling and quantitative RT-PCR analysis as previously reported.[25]

Fl-AEEA-CC5LArgGC5LArgTG5LArgTC5LArgAC5LArgAC5LArgGC5LArgAC5LArgAG-NH2 [PNA3-Fl, fluorescein-labelled PNA3]
change of cellular uptake in the presence of serum (K562 cells [1]): only minor decreases in uptake
effect of trypsin pre-incubation on cellular uptake (K562 cells [2]): does not affect uptake

H-C2DArgC2DArgG2DArgC2DArgT2DArgG2DArgT2DArgC2DArgACACGCACAG-NH2 [PNA6, 2D Arg (C2) backbone-modified 18-mer PNA, model 2, stretch of consecutive modified monomers]
Tm, DNA1 in urea (5 M) [3]: 77 °C
Tm, DNA1 in water [3]: >90 °C
ΔTm due to single mismatch, DNA ([4]; DNA1 vs DNA2 (G→T in the middle of the target), urea 5 M): 8 °C
Tm, DNA2 in urea (5 M) [4]: 69 °C
Tm, RNA1 in water [5]: >90 °C
Tm, RNA1 in urea (5 M) [5]: 75 °C
Tm, RNA2 in urea (5 M) [6]: 65 °C
miR-210 inhibition upon treatment with mithramycin (miR-210): significant inhibition, but to lesser extents
inhibition of miR-210 bioavailability (miR-210 content) (miR-210): Stronger inhibition

H-CC2DARGGC2DARGTG2DARGTC2DARGAC2DARGAC2DARGGC2DARGAC2DARG AG-NH2 [PNA5, 2D Arg (C2) backbone-modified 18-mer PNA, model 1, alternating modified monomers]
Tm, DNA1 in urea (5 M) [3]: 74 °C
Tm, DNA1 in water [3]: >90 °C
Tm, DNA2 in urea (5 M) [4]: 64 °C
Tm, RNA1 in water [5]: >90 °C
Tm, RNA1 in urea (5 M) [5]: 78 °C
Tm, RNA2 in urea (5 M) [6]: 62 °C
miR-210 inhibition upon treatment with mithramycin (miR-210): significant inhibition, but to lesser extents
inhibition of miR-210 bioavailability (miR-210 content) (miR-210): less efficient inhibition

Flu-AEEA-R8-CCGCTGTCACACGCACAG-NH2 [PNA2-Fl, fluorescein-labelled R8-conjugated PNA2, reference compound]
change of cellular uptake in the presence of serum (K562 cells [1]): decreased uptake
cellular uptake (internalisation) in the absence of serum (K562 cells [1]; serum-free, FACS FL1 channel): efficiently internalised
effect of trypsin pre-incubation on cellular uptake (K562 cells [2]): trypsin treatment affects the cellular uptake

Fl-AEEA-C2DArgC2DArgG2DArgC2DArgT2DArgG2DArgT2DArgC2DArgACACGCACAG-NH2 [PNA6-Fl, fluorescein-labelled PNA6]
change of cellular uptake in the presence of serum (K562 cells [1]): no decreases in uptake
effect of trypsin pre-incubation on cellular uptake (K562 cells [2]): does not affect uptake

Fl-AEEA-C5LArgC5LArgG5LArgC5LArgT5LArgG5LArgT5LArgC5LArgACACGCACAG-NH2 [PNA4-Fl, fluorescein-labelled PNA4]
change of cellular uptake in the presence of serum (K562 cells [1]): only minor decreases in uptake
effect of trypsin pre-incubation on cellular uptake (K562 cells [2]): does not affect uptake

Fl-AEEA-CC2DArgGC2DArgTG2DArgTC2DArgAC2DArgAC2DArgGC2DArgAC2DArg AG-NH2 [PNA5-Fl, fluorescein-labelled PNA5]
change of cellular uptake in the presence of serum (K562 cells [1]): no decreases in uptake
effect of trypsin pre-incubation on cellular uptake (K562 cells [2]): does not affect uptake
